Values of other authors as cited in US20060204445A1, “Cell scaffold matrices with image contrast agents” (priority 2005, published 2006).

Conditions: in vivo

heparin
normal half-life of heparin: 1 to 2 h
